# Experimental data: patent publication US20250034171A1, “IMIDAZOPYRIDINE AMIDES AND RELATED COMPOUNDS FOR USE IN THE TREATMENT OF BACTERIAL INFECTIONS” (priority 2021, published 2025)
# Like-named read-outs stand apart in the source and are kept apart here.
# Assays:
# [1] = HTChem stab assay (chemical stability in buffer pH2, pH4 and pH7 vs DMSO reference); type: physicochemical
# Description: HTChem stab assay was used to assess the chemical stability of the compounds. 72 h stirring at rt in a buffer pH2, pH4 and pH7 vs a reference DMSO solution. HTChem stab assay is based on the handbook of Pharmaceutical Stress Testing, Predicting Drug Degradation, second edition, authors Baertschi, Alsante, Reed ISBN 978-143980179-6.
# Compounds were plated (1 μl 10 mM DMSO stock in 96 well plate (DMSO control+3 pH conditions), one plate per condition).
# 200 μL of respectively DMSO, Buffer/DMSO mix pH2, Buffer/DMSO mix pH4 and Buffer/DMSO mix pH7 was added.
# After 72 h shaking (300 rpm) at room temperature the samples were analysed by LC/UV/MS. Chromatograms of samples (stability conditions) were compared with the chromatograms of control sample (DMSO). Extra peaks were flagged and identified by mass spectrometry. Sample purity (reference included) were reported.
# • pH3 buffer: For 11; weigh 4.14 g NaH2PO4·H2O, add 600 ml H2O, add H3PO4 to pH3, add H2O to 1000 ml. Filter over 0.2 μm and store at 4° C. Expires after 30 days. • pH6 buffer: For 1 l; weigh 4.14 g NaH2PO4·H2O, add 600 ml H2O, add 1N NaOH to pH6, add H2O to 1000 ml. Filter over […] and store at 4° C. Expires after 30 days.
# • pH2 Buffer/DMSO (StabSolvent): mix 2 parts of HCl 0.1N with 1 part of DMSO • pH4 Buffer/DMSO (StabSolvent): mix 2 parts of buffer pH3 with 1 part of DMSO • pH7 Buffer/DMSO (StabSolvent): mix 2 parts of buffer pH6 with 1 part of DMSO measure pH prior to use.
# Instrument: Acquity UPLC; Column: Acquity HSS T3, 50 mm length×2.1 mm i.d., 1.8 μm particle size. Detectors: PDA (250-350 nm) and SQD2 (90-1500m/z). Mobile phase A: 0.1% Formic acid in water; Mobile phase B: 0.1% Formic acid in Acetonitrile.
# Injection volume: 5 μL, flow rate 0.6 mL/min.
# Data processing including peak integration and identification was done with Waters OpenLynx software.
# [2] = system: Mycobacterium tuberculosis strain H37Rv; assay: Test 2: MIC determination against M. tuberculosis, resazurin fluorescence; type: cell-based; conditions: Test 2, M. tuberculosis H37Rv; for MIC90: read-out: Bacterial activity MIC90; for IC50: read-out: Bacterial activity pMIC50 (converted)
# [3] = Metabolic stability in liver microsomes (intrinsic clearance); type: in vitro ADME
# Method in brief: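 Parent-compound loss, followed by LC-MS/MS peak area versus t=0, was tracked over 0, 5, 10, 20, 40 and 60 min in NADPH-initiated (1 mM) microsomal incubations: 0.5 mg/ml protein, pH 7.4 phosphate, 1 mM MgCl2, 37° C, substrate typically 1 μM. Half-life from regression gave intrinsic clearance per mg protein.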
# [4] = system: Salmonella typhimurium Ames II Mixed Strains (TA7001-TA7006) and TA98; assay: Genotoxicity assay (AmesIIb mutagenicity test); type: cell-based; note: key: an AmesIIb score of 1 shows no genotoxicity signals
# Description: The aim is to evaluate compounds (and/or their metabolites) for their ability to induce reverse mutations in a gene of histidine-requiring Salmonella typhimurium strains to produce histidine-independent strains of these bacteria, in the absence and in the presence of a mammalian metabolic activation system.
# Point mutations were made in the histidine (His) operon in Salmonella typhimurium, rendering the bacteria incapable of producing histidine. These single base substitutions are positioned at strategic points within the His gene, resulting in his-organisms that cannot grow unless histidine is supplied. When a mutagenic event occurs, base substitutions within the His gene then cause the reversion of the his-Ames II™ strains to His.
# A chemical's mutagenic potential is assessed by exposing these his-organisms to varying concentrations of chemical and selecting for the reversion event. Medium lacking histidine is used for this selection which allows only those cells that have undergone the his- to His reversion to survive and grow.
# The assay may be performed using a kit and instructions from Xenometric. The two strains provided in the Xenometric kit are the Ames II™ Mixed Strains and TA98. The Ames II™ Mixed Strains contains an equimolar mixture of the Ames II™ TA7001-TA7006 strains. Individually, these strains are designed to revert by only one specific base-pair substitution out of six possible changes. Thus, when mixed, all six base substitution mutations can be represented in one culture. This kit also contains TA98 for the detection of frameshift mutations.
# [5] = buffer pH2/DMSO, 72 h stirring at rt
# [6] = buffer pH4/DMSO, 72 h stirring at rt
# [7] = buffer pH7/DMSO, 72 h stirring at rt
# [8] = reference DMSO solution, 72 h stirring at rt
# [9] = mouse, microsomes, 1 µM, pH 7.4
# [10] = Mycobacterium tuberculosis, H37RV
# [11] = mouse, microsomes, pH 7.4, Metabolic Stability Half life (mouse, min.)
# [12] = mouse, microsomes, pH 7.4, mouse liver microsomes, read-out: Metabolic Stability (liver microsome intrinsic clearance) Clearance (mouse, μl/min./mg protein)
Compound,"Chemical stability data, Buffer pH2 [1, 5] [%]","Chemical stability data, Buffer pH4 [1, 6] [%]","Chemical stability data, Buffer pH7 [1, 7] [%]","Chemical stability data, Vehicle DMSO [1, 8] [%]",Bacterial activity pMIC50 [2],MIC90 [2] [µM],"Metabolic Stability (liver microsome intrinsic clearance) Clearance (mouse, μl/min./mg protein) ([3]; mouse liver microsomes) [μl/min./mg protein]","Metabolic Stability Half life (mouse, min.) ([3]; mouse liver microsomes) [h]",GeneTox AmesIIb Score [4],"Chemical stability data, Vehicle DMSO ([1]; 72 h, 50 µM) [%]","Chemical stability data, Buffer pH2 ([1]; 72 h, 50 µM, pH 2) [%]","Chemical stability data, Buffer pH4 ([1]; 72 h, 50 µM, pH 4) [%]","Chemical stability data, Buffer pH7 ([1]; 72 h, 50 µM, pH 7) [%]",GeneTox AmesIIb Score ([4]; Salmonella typhimurium),"MIC90 [2, 10] [µM]","IC50 [2, 10] [pM]","half-life at 1 µM [3, 11] [h]","microsomal CLint at 1 µM [3, 12] [µL/min/mg]",other results
CCc1nc2n(c1C(=O)NCc1ccc(-c3nc4n(n3)CCC(C(F)(F)F)C4)cc1)CCCC2 (racemic) [Compound 13ab],100,100,100,100,8.067,0.024,15.5,1.49,1,–,–,–,–,–,–,–,–,–,–
O=C(NCc1ccc(-c2nc3n(n2)CCC(C(F)(F)F)C3)cc1)c1c(C(F)F)nc2ccccn12 (racemic) [Compound 14ab],100,100,100,100,7.877,0.036,<7.7,>3,1,–,–,–,–,–,–,–,–,–,–
CCc1nc2ncccn2c1C(=O)NCc1ccc(-c2nc3n(n2)CCC(C(F)(F)F)C3)cc1 (racemic) [Compound 17ab],100,97,100,100,7.526,0.105,<7.7,>3,1,–,–,–,–,–,–,–,–,–,–
O=C(NCc1ccc(-c2cn3c(n2)CC(C(F)(F)F)CC3)cc1)c1c(C(F)(F)F)nc2ccccn12 (racemic) [Compound 18ab],98,100,100,98,7.431,0.142,11.1,2.08,1,–,–,–,–,–,–,–,–,–,–
"CCc1nc2ncc(C)cn2c1C(=O)NCc1ccc(-c2cn3c(n2)CC(C(F)(F)F)CC3)cc1 (single isomer, unassigned) [Compound 3a]",–,–,–,–,8.532,0.008,7.78,–,–,100,100,100,100,1,–,–,–,–,"Metabolic Stability (liver microsome intrinsic clearance) Clearance (human, μl/min./mg protein) ([3]; human liver microsomes): 13.4 μl/min./mg protein; Metabolic Stability Half life (human, min.) ([3]; human, microsomes, 1 µM, pH 7.4): 1.72 h; Metabolic Stability Half life (mouse, min.) [3, 9]: 2.97 h"
"CCc1nc2nc(C)ccn2c1C(=O)NCc1ccc(-c2nc3n(n2)CCC(C(F)(F)F)C3)cc1 (single isomer, unassigned) [Compound 5a]",–,–,–,–,–,–,–,–,–,100,100,100,100,1,0.06,21600,> 3,< 7.7,–
"CCc1nc2ncc(Cl)cn2c1C(=O)NCc1ccc(-c2nc3n(n2)CCC(C(F)(F)F)C3)cc1 (single isomer, unassigned) [Compound 10a]",–,–,–,–,<6.301,–,–,–,–,100,84,76,97,1,–,–,> 3,< 7.7,–
"CCc1nc2ncc(Cl)cn2c1C(=O)NCc1ccc(-c2nc3n(n2)CCC(C(F)(F)F)C3)cc1 (single isomer, unassigned) [Compound 10b]",–,–,–,–,8.207,–,11.1,–,–,96,81,71,92,1,0.021,–,–,–,"Metabolic Stability Half life (mouse, min.) [3, 9]: 2.08 h"
CCc1nc2ncc(C)cn2c1C(=O)NCc1ccc(-c2nc3n(n2)CCC(C(F)(F)F)C3)cc1 (stereo not shown) [Compound 1ab],–,–,–,–,–,–,–,–,–,100,100,100,100,1,0.028,9550,> 3,< 7.7,"half-life at 1 µM ([3]; human, microsomes, pH 7.4, Metabolic Stability Half life (human, min.)): > 3 h; microsomal CLint at 1 µM ([3]; human, microsomes, pH 7.4, human liver microsomes, read-out: Metabolic Stability (liver microsome intrinsic clearance) Clearance (human, μl/min./mg protein)): < 7.7 µL/min/mg"
CCc1nc2ncc(C)cn2c1C(=O)NCc1ccc(-c2nc3n(n2)CCC(C)C3)cc1 (stereo not shown) [Compound 4ab],–,–,–,–,–,–,–,–,–,98,98,98,98,1,0.017,7050,2.75,8.38,–
CCc1nc2nc(C)ccn2c1C(=O)NCc1ccc(-c2nc3n(n2)CCC(C(F)(F)F)C3)cc1 (stereo not shown) [Compound 5ab],–,–,–,–,–,–,–,–,–,94,95,96,96,1,0.023,8280,> 3,< 7.7,–
CCc1nc2ncc(OC)cn2c1C(=O)NCc1ccc(-c2nc3n(n2)CCC(C(F)(F)F)C3)cc1 (stereo not shown) [Compound 6ab],–,–,–,–,–,–,–,–,–,93,100,100,100,1,0.007,3480,1.62,14.2,–
Cc1cnc2nc(C3CC3)c(C(=O)NCc3ccc(-c4nc5n(n4)CCC(C(F)(F)F)C5)cc3)n2c1 (stereo not shown) [Compound 8ab],–,–,–,–,–,–,–,–,–,100,100,100,100,1,0.018,7110,–,–,–
